For the experiment, the system named is BDF1 mice, L1210 leukemia sc, survival T/C. Description: NCI In Vivo Anticancer Drug Screen. Data for tumor model L1210 Leukemia (subcutaneous) in B6D2F1 (BDF1) mice. The note with it: endpoint: median survival time, higher = longer survival. In short, it runs like this:
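Tumors were transplanted into mice, the animals were treated with compound, survival or tumor size was then measured, and treated values were divided by vehicle-control values.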

Setting [1] is: dose: 23.0 mg/kg/injection, schedule: Q01DX Z (sc), vehicle: saline.
Where [2] appears, read: dose: 39.0 mg/kg/injection, schedule: Q01DX Z (sc), vehicle: saline.
Setting [3] is: dose: 65.0 mg/kg/injection, schedule: Q01DX Z (sc), vehicle: saline.
The mark [4] stands for this setting: dose: 3.0 mg/kg/injection, schedule: Q01DX Z (sc), vehicle: saline.
Setting [5] is: dose: 8.4 mg/kg/injection, schedule: Q01DX Z (sc), vehicle: saline.
Setting [6] is: dose: 14.0 mg/kg/injection, schedule: Q01DX Z (sc), vehicle: saline.
Where [7] appears, read: dose: 23.0 mg/kg/injection, schedule: Q01DX Z (sc), vehicle: methylcellulose (MC).
The mark [8] stands for this setting: dose: 65.0 mg/kg/injection, schedule: Q01DX Z (sc), vehicle: methylcellulose (MC).
Where [9] appears, read: dose: 108.0 mg/kg/injection, schedule: Q01DX Z (sc), vehicle: methylcellulose (MC).
Where [10] appears, read: dose: 180.0 mg/kg/injection, schedule: Q01DX Z (sc), vehicle: methylcellulose (MC).
[11] abbreviates: dose: 300.0 mg/kg/injection, schedule: Q01DX Z (sc), vehicle: methylcellulose (MC).

Values joined by “and” are separate entries in the source; they are usually repeats but may differ in a detail not shown here. Equal values may be shown once. Toxic doses and inconclusive results are not listed.

Seven compounds from PubChem BioAssay AID250 (DTP/NCI, 2004) can be followed below.

As for `O=c1[nH]c(=O)n(C2CC(O)C(CO)O2)cc1F` (stereo not given), the T/C runs as follows: (dose: 4.0 mg/kg/injection, schedule: Q01DX Z (sc), vehicle: saline) 100 % of control; (dose: 5.0 mg/kg/injection, schedule: Q01DX009 (ip), vehicle: water) 100 % of control; (dose: 5.0 mg/kg/injection, schedule: Q01DX009 (sc), vehicle: water) 101 % of control; (dose: 8.0 mg/kg/injection, schedule: Q01DX Z (sc), vehicle: saline) 100 % of control; (dose: 10.0 mg/kg/injection, schedule: Q01DX009 (ip), vehicle: water) 97 % of control; (dose: 10.0 mg/kg/injection, schedule: Q01DX009 (sc), vehicle: water) 98 % of control. Further, the T/C by setting is: (dose: 16.0 mg/kg/injection, schedule: Q01DX Z (sc), vehicle: saline) 111 % of control; (dose: 20.0 mg/kg/injection, schedule: Q01DX009 (ip), vehicle: water) 101 % of control; (dose: 20.0 mg/kg/injection, schedule: Q01DX009 (sc), vehicle: water) 104 % of control; under setting [1], 100 % of control; (dose: 23.3 mg/kg/injection, schedule: Q01DX Z (sc), vehicle: saline) 104 % of control; (dose: 32.0 mg/kg/injection, schedule: Q01DX Z (sc), vehicle: saline) 111 % of control. For the same compound, the T/C (dose: 38.9 mg/kg/injection, schedule: Q01DX Z (sc), vehicle: saline) is 91 % of control; the T/C under setting [2] is 100 % of control; the T/C (dose: 40.0 mg/kg/injection, schedule: Q01DX009 (ip), vehicle: water) was 110 % of control; the T/C (dose: 40.0 mg/kg/injection, schedule: Q01DX009 (sc), vehicle: water) was 121 % of control; the T/C (dose: 50.0 mg/kg/injection, schedule: Q01DX009 (sc), vehicle: water) was 100 % of control; the T/C (dose: 64.0 mg/kg/injection, schedule: Q01DX Z (sc), vehicle: saline) is 105 % of control. Also, the T/C (dose: 64.8 mg/kg/injection, schedule: Q01DX Z (sc), vehicle: saline) is 100 % of control; the T/C under setting [3] was 100 % of control and 105 % of control; the T/C (dose: 80.0 mg/kg/injection, schedule: Q01DX009 (ip), vehicle: water) was 124 % of control; the T/C (dose: 100.0 mg/kg/injection, schedule: Q01DX009 (sc), vehicle: water) was 110 % of control; the T/C (dose: 200.0 mg/kg/injection, schedule: Q01DX009 (sc), vehicle: water) is 150 % of control; the T/C (dose: 256.0 mg/kg/injection, schedule: Q01DX Z (sc), vehicle: saline) is 161 % of control. Also, the T/C (dose: 400.0 mg/kg/injection, schedule: Q01DX009 (sc), vehicle: water) was 153 % of control.

As for `CCCC(=O)NC1=C(N2CC2)C(=O)C(NC(=O)CCC)=C(N2CC2)C1=O`, the T/C was 100 % of control (dose: 1.8 mg/kg/injection, schedule: Q01DX Z (sc), vehicle: saline); 111 % of control under setting [4]; 183 % of control under setting [5]; 150 % of control under setting [6]; 122 % of control under setting [1].

For `CN(N=O)C(=O)NC(C=O)C(O)C(O)C(O)CO` (stereo not given), the T/C under setting [2] is 100 % of control; the T/C under setting [3] is 112 % of control; the T/C (dose: 108.0 mg/kg/injection, schedule: Q01DX Z (sc), vehicle: saline) was 100 % of control; the T/C (dose: 180.0 mg/kg/injection, schedule: Q01DX Z (sc), vehicle: saline) was 112 % of control; the T/C (dose: 300.0 mg/kg/injection, schedule: Q01DX Z (sc), vehicle: saline) is 112 % of control; the T/C (dose: 500.0 mg/kg/injection, schedule: Q01DX Z (sc), vehicle: saline) was 100 % of control.

On to `CS(=O)(=O)OCCCCOS(C)(=O)=O`, for which the T/C is 93 % of control (dose: 6.25 mg/kg/injection, schedule: Q01DX009 (ip), vehicle: Klucel (hydroxypropylcellulose) (HPC)); 97 % of control (dose: 6.25 mg/kg/injection, schedule: Q01DX009 (sc), vehicle: Klucel (hydroxypropylcellulose) (HPC)); 103 % of control (dose: 12.5 mg/kg/injection, schedule: Q01DX009 (ip), vehicle: Klucel (hydroxypropylcellulose) (HPC)); 96 % of control (dose: 12.5 mg/kg/injection, schedule: Q01DX009 (sc), vehicle: Klucel (hydroxypropylcellulose) (HPC)); 103 % of control under setting [7]; 106 % of control (dose: 25.0 mg/kg/injection, schedule: Q01DX009 (ip), vehicle: Klucel (hydroxypropylcellulose) (HPC)). The T/C was 105 % of control (dose: 25.0 mg/kg/injection, schedule: Q01DX009 (sc), vehicle: Klucel (hydroxypropylcellulose) (HPC)); 105 % of control (dose: 47.0 mg/kg/injection, schedule: Q01DX Z (sc), vehicle: methylcellulose (MC)); 101 % of control (dose: 50.0 mg/kg/injection, schedule: Q01DX009 (ip), vehicle: Klucel (hydroxypropylcellulose) (HPC)); 96 % of control (dose: 50.0 mg/kg/injection, schedule: Q01DX009 (sc), vehicle: Klucel (hydroxypropylcellulose) (HPC)); 96 % of control under setting [8]; 110 % of control (dose: 78.0 mg/kg/injection, schedule: Q01DX Z (sc), vehicle: methylcellulose (MC)). Also, the T/C runs as follows: under setting [9], 96 % of control; (dose: 130.0 mg/kg/injection, schedule: Q01DX Z (sc), vehicle: methylcellulose (MC)) 100 % of control; under setting [10], 103 % of control; under setting [11], 100 % of control.

As for `NC(=O)c1ccc([N+](=O)[O-])cc1`, the T/C is 90 % of control under setting [7]; 100 % of control (dose: 39.0 mg/kg/injection, schedule: Q01DX Z (sc), vehicle: methylcellulose (MC)); 90 % of control under setting [8]; 90 % of control under setting [9]; 90 % of control under setting [10]; 100 % of control under setting [11]. Also, the T/C (dose: 500.0 mg/kg/injection, schedule: Q01DX Z (sc), vehicle: methylcellulose (MC)) is 100 % of control.

For `CC(C)CN(N)C(N)=O`, the T/C reads like this: (dose: 78.0 mg/kg/injection, schedule: Q01DX Z (sc), vehicle: saline) 100 % of control; (dose: 130.0 mg/kg/injection, schedule: Q01DX Z (sc), vehicle: saline) 100 % of control; (dose: 216.0 mg/kg/injection, schedule: Q01DX Z (sc), vehicle: saline) 100 % of control; (dose: 360.0 mg/kg/injection, schedule: Q01DX Z (sc), vehicle: saline) 111 % of control; (dose: 600.0 mg/kg/injection, schedule: Q01DX Z (sc), vehicle: saline) 111 % of control.

Take `O=C(Nc1ccc(C2=NCCN2)cc1)c1ccc(C(=O)Nc2ccc(C3=NCCN3)cc2)c([N+](=O)[O-])c1`: the T/C under setting [4] is 100 % of control; the T/C (dose: 5.0 mg/kg/injection, schedule: Q01DX Z (sc), vehicle: saline) is 109 % of control; the T/C under setting [5] is 104 % of control and 109 % of control; the T/C under setting [6] is 104 % of control; the T/C (dose: 23.0 mg/kg/injection, schedule: Q01DX Z (ip), vehicle: water) was 100 % of control; the T/C under setting [1] is 118 % of control. The T/C was 100 % of control (dose: 23.0 mg/kg/injection, schedule: Q01DX Z (sc), vehicle: water); 160 % of control (dose: 39.0 mg/kg/injection, schedule: Q01DX Z (ip), vehicle: water); 115 % of control (dose: 39.0 mg/kg/injection, schedule: Q01DX Z (sc), vehicle: water); 180 % of control (dose: 65.0 mg/kg/injection, schedule: Q01DX Z (ip), vehicle: water); 114 % of control and 209 % of control under setting [3].
